Consider twelve compounds from ChEMBL document CHEMBL1909524, “Discovery of a novel series of cyclic urea as potent CCR5 antagonists” (Bioorg Med Chem Lett, 2011).

For orientation: IC50 means the concentration at which inhibition is half-maximal. For orientation: half-life means the time needed for the level to fall by half in the phase considered. The term CL/F denotes the apparent clearance, not corrected for the fraction that reaches the circulation. One may read the clearance as the rate of elimination divided by the concentration.

Series [1] in a line: Metabolic stability of the compound in fasted stimulated intestinal fluid. The format is physicochemical. The note with it: simulated gi fluid.
Series [2] concerns Human immunodeficiency virus 1. In words: Antiviral activity against HIV1 Ba-L infected in human HOS cells assessed as reduction of viral replication after 4 days by Steady-Glo luciferase assay. The format is functional, organism-based. The note with it: Human immunodeficiency virus 1, Ba-L, 96 h.
For another series, the system named is PBL. Briefly: Cytotoxicity against human PBL cells assessed as cell death up to 1 uM by celltiter glo assay. Format: cell-based. In general terms: ATP-based viability assays read luminescence as a measure of living cells.
Another series concerns HOS. In words: Cytotoxicity against human HOS cells assessed as cell death up to 1 uM by celltiter glo assay. Format: cell-based.
In series [3] the test system is Human immunodeficiency virus 1. In words: Antiviral activity against HIV1 Ba-L infected in human PBL cells assessed as reduction of viral replication after 4 days by Steady-Glo luciferase assay. Format: functional, organism-based. Particulars: Human immunodeficiency virus 1, Ba-L, 96 h.
A short description of series [4]: Stability of the compound in fasted stimulated intestinal fluid within 1000 hrs. Format: physicochemical. Particulars: simulated gi fluid.
Series [5] can be described thus: Half life in dog at 1 mg/kg, iv. Set-up: dose 1 mg/kg, route intravenous. Particulars: in vivo. Format: ADME, organism-based, Canis lupus familiaris.
The nature of series [6]: Clearance in monkey at 1 mg/kg, po. Format: ADME, organism-based, Macaca mulatta. Also noted: dose 1 mg/kg, route oral. Particulars: rhesus monkey, in vivo.
A short description of series [7]: Oral bioavailability in dog at 1 mg/kg. The format is ADME, organism-based, Canis lupus familiaris. The note with it: in vivo.
Series [8] in a line: Clearance in dog at 1 mg/kg, po. Format: ADME, organism-based, Canis lupus familiaris. Set-up: dose 1 mg/kg, route oral. The note with it: in vivo.
A short description of series [9]: Oral bioavailability in monkey at 1 mg/kg. The format is ADME, organism-based, Macaca mulatta. Particulars: rhesus monkey, in vivo.
The nature of series [10]: Clearance in rat. The note with it: in vivo. Format: ADME, organism-based.
The nature of series [11]: Half life in monkey at 1 mg/kg, iv. Format: ADME, organism-based, Macaca mulatta. Set-up: dose 1 mg/kg, route intravenous. The note with it: rhesus monkey, in vivo.
The nature of series [12]: Stability of the compound in fasted stimulated intestinal fluid assessed as half life at pH 6. Format: physicochemical. Particulars: fasted simulated intestinal fluid.

Turning to `Cc1nc(Oc2ccc(NS(C)(=O)=O)cc2)ccc1CN1CCC(N2C(=O)N(c3cc(C(N)=O)c(F)cc3F)C(=O)C2c2ccccc2)CC1` (racemic), the Stability entry in [1] is given as “Unstable”. The IC50 in series [2] worked out at 14 nM.

Regarding `Cc1nc(Oc2ccc(S(=O)(=O)C(C)C)cc2)ccc1CN1CCC(N2C(=O)N(c3cc(C(N)=O)c(F)cc3F)C[C@H]2c2ccccc2)CC1`, the Activity entry in the series on PBL and in the series on HOS was “Non-toxic” throughout. Besides, the IC50 in [3] was 1.1 nM; in series [2], 3.6 nM.

With `Cc1nc(Oc2ccc(S(C)(=O)=O)cc2)ccc1CN1CCC(N2C(=O)N(c3cc(C(N)=O)c(F)cc3F)C[C@H]2c2ccccc2)CC1`, the Activity result with PBL and in the series on HOS was “Non-toxic” in each case. In [4], the Stability result is “Stable”. Further, the half-life was 6.9 h in series [5] and 1.4 h in [11]. For the same compound, the CL/F in [6] worked out at 20.2 mL/min/kg; in series [8], 2.1 mL/min/kg. Moreover, the bioavailability in [7] is 76%; in [9], 110%. In [10], the clearance is 27 mL/min/kg. Also, the results for the IC50 in [3] and in [2] were 1 nM and 4 nM, respectively.

In the case of `Cc1nc(Oc2ccc(NS(C)(=O)=O)cc2)ccc1CN1CCC(N(C(=O)Nc2cc(C(N)=O)c(F)cc2F)c2cccc(F)c2)CC1`, the half-life in series [12] is 334 h. The IC50 in series [3] was found to be 0.6 nM; in [2], 2 nM.

`Cc1nc(Oc2ccc(S(C)(=O)=O)cc2)ccc1CN1CCC(N2C(=O)N(c3cc(C(N)=O)c(F)cc3F)CC2c2ccccc2)CC1` (racemic): the IC50 in series [3] was found to be 2 nM; in series [2] it was 12 nM.

For `Cc1nc(Oc2ccc(S(C)(=O)=O)cc2F)ccc1CN1CCC(N2C(=O)N(c3cc(C(N)=O)c(F)cc3F)C[C@H]2c2ccccc2)CC1`, the Activity entry in the series on PBL and in the series with HOS was “Non-toxic” each time. For the same compound, the IC50 amounted to 0.6 nM in series [3] and 5.2 nM in [2].

Turning to `Cc1nc(Oc2ccc(CC(=O)NC(C)C)cc2)ccc1CN1CCC(N2C(=O)N(c3cc(C(N)=O)c(F)cc3F)C[C@H]2c2ccccc2)CC1`, the Activity result in the series on PBL and in the series on HOS was “Non-toxic” throughout. The results for the IC50 in [3] and in series [2] were 0.5 nM and 3.3 nM, respectively.

For the compound `CC(C)c1nc(Oc2ccc(S(C)(=O)=O)cc2)ccc1CN1CCC(N2C(=O)N(c3cc(C(N)=O)c(F)cc3F)C[C@H]2c2ccccc2)CC1`, the Activity entry with PBL and in the series with HOS was “Non-toxic” each time. Also, the half-inhibitory concentration (IC50) turned out to be 1.6 nM in [3] and 2.6 nM in series [2].

Turning to `Cc1nc(Oc2ccc(NS(C)(=O)=O)cc2)ccc1CN1CCC(N(C(=O)Oc2ccc(F)c(C(N)=O)c2)c2cccc(F)c2)CC1`, in [2], the IC50 turned out to be 29 nM.

Take `Cc1cc(S(C)(=O)=O)ccc1Oc1ccc(CN2CCC(N3C(=O)N(c4cc(C(N)=O)c(F)cc4F)C[C@H]3c3ccccc3)CC2)c(C)n1`: the Activity entry in the series with PBL and in the series with HOS was “Non-toxic” each time. The IC50 in [2] is 5.4 nM.

On to `Cc1nc(Oc2ccc(S(C)(=O)=O)cc2)ccc1CN1CCC(N2C(=O)N(c3cc(C(N)=O)c(F)cc3F)C[C@@H]2c2ccccc2)CC1`, for which the IC50 in series [3] turned out to be 289 nM; in series [2] it was 213 nM.

As for `Cc1nc(Oc2ccc(NS(C)(=O)=O)cc2)ccc1CN1CCC(N(Cc2ccccc2F)C(=O)Nc2cc(C(N)=O)c(F)cc2F)CC1`, the half-maximal inhibitory concentration (IC50) in [3] is 0.9 nM; in [2], 1.7 nM.
